The source of these data is patent EP0073143B1, “Novel complex amido and imido derivatives of carboxyalkyl peptides and thioethers and ethers of peptides” (priority 1981, dated 1983).

For series [1], the target named is T1, human plasma angiotensin converting enzyme (Homo sapiens, UniProt P12821).
T1 construct: partially-purified human plasma angiotensin converting enzyme; from tissue; host or cells: human plasma
Briefly: In vitro assay of inhibition of angiotensin converting enzyme. Particulars: [3H]benzoyl-Gly-His-Leu 80 nM, 37°C, 15 minutes; order of magnitude only; read-out: I50. The series is classed as biochemical. The protocol: To this was added 100 microliters of buffered substrate [S], [^3H]benzoyl-[…], 80 nM (25 Ci/mmole). The reaction was started by adding 100 microliters of partially-purified human plasma angiotensin converting enzyme, or 100 microliters of buffer alone. The concentration of enzyme [E] used was that required to hydrolyze 8-12% of substrate when incubated at 37°C for 15 minutes. The scintillation vials and their contents were incubated at 37°C for 15 minutes, and the reactions were stopped by adding 200 microliters of 0.5M HCI to each vial. The radioactive reaction product, [^3H]benzoyl-Gly(hippuric acid), was separated from unhydrolyzed substrate by adding and mixing (by inversion) 3 ml of Ventrex Cocktail No. 1 (Ventrex Laboratories, Inc., Portland, Maine), a fluid disclosed in copending U.S. patent application No. 184,653, filed September 6, 1980. Extractable ^3H was quantified by liquid scintillation counting. Substrate, in c.p.m., was quantified by scintillation counting of a vial containing 100 μl of buffered substrate in 5 ml of RIAfluor (New England Nuclear). The reaction mixture containing all constituents except for inhibitor was termed the control (C). The reaction mixture lacking enzyme and inhibitor was called the blank (B). Reaction mixtures containing inhibitor (varied over the range of 10^-4-10^-12M) were called the test (T) reactions. Under the conditions of this assay, the reaction obeys first order enzyme kinetics, thus the concentration of inhibitor required to inhibit the rate of hydrolysis by half (150) approximate the Ki value. The results were estimated by use of the formula: [formula] where C = control c.p.m.; B = blank c.p.m.; [S] = substrate c.p.m. The factor 100 converts fractional substrate utilization into percentage utilization, and 1/15 minute connects to percentage substrate utilization/minute. Thus, [E] is enzyme activity in percentage substrate utilization/minute. By substituting T for C, hydrolysis rates are computed for the test reaction mixtures. By comparing a given test rate against the control rate, the degree of inhibition can be computed.

Series [2] relates to effects of 400 ng/kg of angiotensin I on mean arterial blood pressure. Briefly: Intravenous effectiveness: effect on the pressor response to angiotensin I in anesthetized rats. The series is classed as in vivo. Conditions: de-iodo analog compared with the iodo compound. On the procedure: Rats (190-290 g body weight) were fasted overnight and then anesthetized with intraperitoneal pentobarbital, 50-60 mg/kg. Tracheostomy was performed and the animals were ventilated mechanically. A cannula was inserted into a femoral vein for injection of angiotensin I, and a second cannula was inserted into a common carotid artery for direct measurement of arterial blood pressure. Heparin, 1,000 units, was injected via the femoral vein to prevent coagulation. Blood pressure was measured with a pressure transducer connected to a polygraph. The rats were injected with […] of angiotensin I in 20 µl of 0.9 g% NaCI, an amount of angiotensin I sufficient to raise mean arterial blood pressure by approximately 48 mm Hg.
After the responsiveness of a given rat to angiotensin I was established, the named compound at 0.5 micromole/kg (drug dissolved in 15 microliters of 0.9% NaCl) was given intravenously. At timed intervals, the effects of 400 ng/kg of angiotensin I on mean arterial blood pressure were tested. Results are shown below:
Experiments were carried out using rats according to Example 32.

For another series, the system named is man. Particulars: 13 patients treated, all biopsies; Hoorntje et al.; cited from earlier work.
Series [3] is described as follows: Loss of activity of an aqueous solution on standing. In kind it is physicochemical. Conditions: fresh aqueous solution 1 mg per ml, pH of about 8, standing for as little as 30 minutes.

The structures appear in SMILES notation. pIC50: −log10 of the molar value.

T1 sequence (P12821 30-1232 limits assumed): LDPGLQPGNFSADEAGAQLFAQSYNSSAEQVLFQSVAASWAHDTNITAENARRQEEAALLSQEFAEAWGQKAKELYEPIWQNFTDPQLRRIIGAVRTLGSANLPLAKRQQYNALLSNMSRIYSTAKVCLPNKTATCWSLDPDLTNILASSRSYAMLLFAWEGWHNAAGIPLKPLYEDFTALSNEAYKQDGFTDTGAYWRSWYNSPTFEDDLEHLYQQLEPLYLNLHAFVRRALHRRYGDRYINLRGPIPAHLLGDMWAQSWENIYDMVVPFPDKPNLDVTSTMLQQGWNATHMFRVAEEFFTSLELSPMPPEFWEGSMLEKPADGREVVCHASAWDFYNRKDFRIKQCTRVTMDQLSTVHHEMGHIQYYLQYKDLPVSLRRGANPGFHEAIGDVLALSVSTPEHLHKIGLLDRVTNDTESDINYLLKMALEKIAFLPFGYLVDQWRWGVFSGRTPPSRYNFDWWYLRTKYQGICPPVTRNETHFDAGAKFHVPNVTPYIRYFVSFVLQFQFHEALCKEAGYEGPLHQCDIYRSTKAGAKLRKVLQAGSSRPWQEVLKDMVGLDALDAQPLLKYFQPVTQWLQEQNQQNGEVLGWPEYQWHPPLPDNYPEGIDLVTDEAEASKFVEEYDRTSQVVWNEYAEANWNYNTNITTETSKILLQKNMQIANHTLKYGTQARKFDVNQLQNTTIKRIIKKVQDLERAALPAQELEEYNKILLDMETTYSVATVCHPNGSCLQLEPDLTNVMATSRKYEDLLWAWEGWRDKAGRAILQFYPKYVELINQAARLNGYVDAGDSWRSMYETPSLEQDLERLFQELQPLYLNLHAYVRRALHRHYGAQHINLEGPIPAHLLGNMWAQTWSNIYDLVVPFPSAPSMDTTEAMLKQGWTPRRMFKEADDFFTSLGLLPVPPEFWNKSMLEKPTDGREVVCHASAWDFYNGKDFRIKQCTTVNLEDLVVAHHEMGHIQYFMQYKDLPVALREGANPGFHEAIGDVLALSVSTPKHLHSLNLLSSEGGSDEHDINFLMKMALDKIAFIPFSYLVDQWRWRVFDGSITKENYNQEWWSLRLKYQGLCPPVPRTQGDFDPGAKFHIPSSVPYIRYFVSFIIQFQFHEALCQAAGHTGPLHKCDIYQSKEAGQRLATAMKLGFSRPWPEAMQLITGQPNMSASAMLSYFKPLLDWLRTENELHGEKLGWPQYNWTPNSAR

On to `CC(N[C@@H](CC(=O)N1CCCC1)C(=O)O)C(=O)N1CCC[C@H]1C(=O)O` (stereo partly drawn) [N-[L-1-carboxy-2-(carbopyrrolide)ethyl]-Alanyl-L-Proline], for which the pIC50 in series [1] is roughly 7.00.
As to `CC(N[C@@H](CCC(=O)Nc1ccc(I)cc1)C(=O)O)C(=O)N1CCC[C@H]1C(=O)O` (stereo partly drawn) [N-[L-1-carboxy-3-(carbo-4-iodo-anilide)propyl] Alanyl-L-Proline], the pIC50 in series [1] is roughly 9.00. In addition, the “increase of intravenous effectiveness on removal of iodine” value in series [2] is given as “three-fold”.
As for `CC(N[C@@H](CCC(=O)Nc1ccccc1)C(=O)O)C(=O)N1CCC[C@H]1C(=O)O` (stereo partly drawn) [N-[L-1-carboxy-3-(carbo-anilide)propyl]-Alanyl-L-Proline], the pIC50 in series [1] is roughly 9.00.
As to `C[C@H](CS)C(=O)N1CCC[C@H]1C(=O)O` [SQ14225, D-3-mercapto-2-methylpropanoyl-L-proline], the renal biopsies entry in the series on man is “evidence of immune complex deposition along the glomerular basement membranes”. Besides, in series [3], the “activity of aqueous solution upon standing” value is “substantially less active”.
